In ChEMBL document CHEMBL1135452, “Side-chain homologation of nodulisporic acid: synthesis of potent new dienyl derivatives” (Bioorg Med Chem Lett, 2002):

Test system: Pulicinae
Assay: In vitro systemic flea efficacy using membrane feeding assay.
Assay type: functional

SMILES	Activity
C=C(C)[C@H]1C(=O)c2c3c(cc4c5c(n1c24)[C@@]1(C)C(CC[C@H]2[C@](C)(/C=C/C=C/C(=O)N(C)CC)[C@@H](O)CC[C@@]21C)C5)C1=CC(C)(C)OC(C)(C)C1[C@@H]3O (some centres undefined)	1 p.p.m.
C=C(C)[C@H]1C(=O)c2c3c(cc4c5c(n1c24)[C@@]1(C)C(CC[C@H]2[C@](C)(/C=C/C=C(\C(C)=O)C(=O)N(C)C)[C@@H](O)CC[C@@]21C)C5)C1=CC(C)(C)OC(C)(C)C1[C@@H]3O (some centres undefined)	1 p.p.m.
C=C(C)[C@H]1C(=O)c2c3c(cc4c5c(n1c24)[C@@]1(C)C(CC[C@H]2[C@](C)(/C=C/C=C(\CC)C(=O)NC(C)(C)C)[C@@H](O)CC[C@@]21C)C5)C1=CC(C)(C)OC(C)(C)C1[C@@H]3O (some centres undefined)	1 p.p.m.
C=C(C)[C@H]1C(=O)c2c3c(cc4c5c(n1c24)[C@@]1(C)C(CC[C@H]2[C@](C)(/C=C/C(C)=C/C(=O)NC(C)C)[C@@H](O)CC[C@@]21C)C5)C1=CC(C)(C)OC(C)(C)C1[C@@H]3O (some centres undefined)	1 p.p.m.
C=C(C)[C@H]1C(=O)c2c3c(cc4c5c(n1c24)[C@@]1(C)C(CC[C@H]2[C@](C)(/C=C/C=C(\CC)C(=O)N(C)C)[C@@H](O)CC[C@@]21C)C5)C1=CC(C)(C)OC(C)(C)C1[C@@H]3O (some centres undefined)	1 p.p.m.
C=CC/C(=C\C=C\[C@]1(C)[C@@H](O)CC[C@@]2(C)[C@H]1CCC1Cc3c(n4c5c(c6c(cc35)C3=CC(C)(C)OC(C)(C)C3[C@@H]6O)C(=O)[C@@H]4C(=C)C)[C@@]12C)C(=O)NC(C)(C)C (some centres undefined)	10 p.p.m.
C=C(C)[C@H]1C(=O)c2c3c(cc4c5c(n1c24)[C@@]1(C)C(CC[C@H]2[C@](C)(/C=C/C=C(\OC)C(=O)NC(C)(C)C)[C@@H](O)CC[C@@]21C)C5)C1=CC(C)(C)OC(C)(C)C1[C@@H]3O (some centres undefined)	1 p.p.m.
C=C(C)[C@H]1C(=O)c2c3c(cc4c5c(n1c24)[C@@]1(C)C(CC[C@H]2[C@](C)(/C=C/C=C(\F)C(=O)NC(C)(C)C)[C@@H](O)CC[C@@]21C)C5)C1=CC(C)(C)OC(C)(C)C1[C@@H]3O (some centres undefined)	1 p.p.m.
C=C/C=C/[C@]1(C)[C@@H](O)CC[C@@]2(C)[C@H]1CCC1Cc3c(n4c5c(c6c(cc35)C3=CC(C)(C)OC(C)(C)C3[C@@H]6O)C(=O)[C@@H]4C(=C)C)[C@@]12C (some centres undefined)	10 p.p.m.
C=C(C)[C@H]1C(=O)c2c3c(cc4c5c(n1c24)[C@@]1(C)C(CC[C@H]2[C@](C)(/C=C/C=C(\CCCC)C(=O)NCC)[C@@H](O)CC[C@@]21C)C5)C1=CC(C)(C)OC(C)(C)C1[C@@H]3O (some centres undefined)	1 p.p.m.
C=C(C)[C@H]1C(=O)c2c3c(cc4c5c(n1c24)[C@@]1(C)C(CC[C@H]2[C@](C)(/C=C/C=C(\C#N)C(=O)N(C)C)[C@@H](O)CC[C@@]21C)C5)C1=CC(C)(C)OC(C)(C)C1[C@@H]3O (some centres undefined)	1 p.p.m.
C=C(C)[C@H]1C(=O)c2c3c(cc4c5c(n1c24)[C@@]1(C)C(CC[C@H]2[C@](C)(/C=C/C=C(\CCC)C(=O)O)[C@@H](O)CC[C@@]21C)C5)C1=CC(C)(C)OC(C)(C)C1[C@@H]3O (some centres undefined)	> 10 p.p.m.
C=C(C)[C@H]1C(=O)c2c3c(cc4c5c(n1c24)[C@@]1(C)C(CC[C@H]2[C@](C)(/C=C/C=C(\CCC)C(=O)NCC)[C@@H](O)CC[C@@]21C)C5)C1=CC(C)(C)OC(C)(C)C1[C@@H]3O (stereo in doubt; 45)	1 p.p.m.
C=C(C)[C@H]1C(=O)c2c3c(cc4c5c(n1c24)[C@@]1(C)C(CC[C@H]2[C@](C)(/C=C/C=C(\F)C(=O)NCC)[C@@H](O)CC[C@@]21C)C5)C1=CC(C)(C)OC(C)(C)C1[C@@H]3O (some centres undefined)	1 p.p.m.
C=CC/C(=C\C=C\[C@]1(C)[C@@H](O)CC[C@@]2(C)[C@H]1CCC1Cc3c(n4c5c(c6c(cc35)C3=CC(C)(C)OC(C)(C)C3[C@@H]6O)C(=O)[C@@H]4C(=C)C)[C@@]12C)C(=O)N(C)C (some centres undefined)	1 p.p.m.
C=C(C)[C@H]1C(=O)c2c3c(cc4c5c(n1c24)[C@@]1(C)C(CC[C@H]2[C@](C)(/C=C/C=C/C(=O)O)[C@@H](O)CC[C@@]21C)C5)C1=CC(C)(C)OC(C)(C)C1[C@@H]3O (some centres undefined)	10 p.p.m.
C=CC/C(=C\C=C\[C@]1(C)[C@@H](O)CC[C@@]2(C)[C@H]1CCC1Cc3c(n4c5c(c6c(cc35)C3=CC(C)(C)OC(C)(C)C3[C@@H]6O)C(=O)[C@@H]4C(=C)C)[C@@]12C)C(N)=O (some centres undefined)	1 p.p.m.
C=C(C)[C@H]1C(=O)c2c3c(cc4c5c(n1c24)[C@@]1(C)C(CC[C@H]2[C@](C)(/C=C/C=C(\C#N)C(=O)N4CCCC4)[C@@H](O)CC[C@@]21C)C5)C1=CC(C)(C)OC(C)(C)C1[C@@H]3O (some centres undefined)	10 p.p.m.
C=CC/C(=C\C=C\[C@]1(C)[C@@H](O)CC[C@@]2(C)[C@H]1CCC1Cc3c(n4c5c(c6c(cc35)C3=CC(C)(C)OC(C)(C)C3[C@@H]6O)C(=O)[C@@H]4C(=C)C)[C@@]12C)C(=O)NCC (some centres undefined)	1 p.p.m.
C=C(C)[C@H]1C(=O)c2c3c(cc4c5c(n1c24)[C@@]1(C)C(CC[C@H]2[C@](C)(/C=C/C=C(\OC)C(=O)O)[C@@H](O)CC[C@@]21C)C5)C1=CC(C)(C)OC(C)(C)C1[C@@H]3O (some centres undefined)	10 p.p.m.
C=C(C)[C@H]1C(=O)c2c3c(cc4c5c(n1c24)[C@@]1(C)C(CC[C@H]2[C@](C)(/C=C/C=C(\CC)C(=O)NCC)[C@@H](O)CC[C@@]21C)C5)C1=CC(C)(C)OC(C)(C)C1[C@@H]3O (some centres undefined)	1 p.p.m.
C=C(C)[C@H]1C(=O)c2c3c(cc4c5c(n1c24)[C@@]1(C)C(CC[C@H]2[C@](C)(/C=C/C=C/P(=O)(OCC)OCC)[C@@H](O)CC[C@@]21C)C5)C1=CC(C)(C)OC(C)(C)C1[C@@H]3O (some centres undefined)	10 p.p.m.

SMILES	Activity
C=C(C)[C@H]1C(=O)c2c3c(cc4c5c(n1c24)[C@@]1(C)C(CC[C@H]2[C@](C)(/C=C/C=C/C(=O)NCc4ccccc4)[C@@H](O)CC[C@@]21C)C5)C1=CC(C)(C)OC(C)(C)C1[C@@H]3O (some centres undefined)	10 p.p.m.
C=C(C)[C@H]1C(=O)c2c3c(cc4c5c(n1c24)[C@@]1(C)C(CC[C@H]2[C@](C)(/C=C/C=C(\CCC)C(=O)NCC)[C@@H](O)CC[C@@]21C)C5)C1=CC(C)(C)OC(C)(C)C1[C@@H]3O (stereo in doubt)	10 p.p.m.
C=CC/C(=C\C=C\[C@]1(C)[C@@H](O)CC[C@@]2(C)[C@H]1CCC1Cc3c(n4c5c(c6c(cc35)C3=CC(C)(C)OC(C)(C)C3[C@@H]6O)C(=O)[C@@H]4C(=C)C)[C@@]12C)C(=O)OC (some centres undefined)	10 p.p.m.
C=C(C)[C@H]1C(=O)c2c3c(cc4c5c(n1c24)[C@@]1(C)C(CC[C@H]2[C@](C)(/C=C/C=C/C(C)=O)[C@@H](O)CC[C@@]21C)C5)C1=CC(C)(C)OC(C)(C)C1[C@@H]3O (some centres undefined)	10 p.p.m.
C=C(C)[C@H]1C(=O)c2c3c(cc4c5c(n1c24)[C@@]1(C)C(CC[C@H]2[C@](C)(/C=C/C=C(\C#N)c4nc6ccccc6[nH]4)[C@@H](O)CC[C@@]21C)C5)C1=CC(C)(C)OC(C)(C)C1[C@@H]3O (some centres undefined)	10 p.p.m.
C=C(C)[C@H]1C(=O)c2c3c(cc4c5c(n1c24)[C@@]1(C)C(CC[C@H]2[C@](C)(/C=C/C(C)=C/C(=O)NC4CC4)[C@@H](O)CC[C@@]21C)C5)C1=CC(C)(C)OC(C)(C)C1[C@@H]3O (some centres undefined)	1 p.p.m.
C=C(C)[C@H]1C(=O)c2c3c(cc4c5c(n1c24)[C@@]1(C)C(CC[C@H]2[C@](C)(/C=C/C=C/C(=O)OCC)[C@@H](O)CC[C@@]21C)C5)C1=CC(C)(C)OC(C)(C)C1[C@@H]3O (some centres undefined)	1 p.p.m.
C=C(C)[C@H]1C(=O)c2c3c(cc4c5c(n1c24)[C@@]1(C)C(CC[C@H]2[C@](C)(/C=C/C=C(\OC)C(N)=O)[C@@H](O)CC[C@@]21C)C5)C1=CC(C)(C)OC(C)(C)C1[C@@H]3O (some centres undefined)	10 p.p.m.
C=C(C)[C@H]1C(=O)c2c3c(cc4c5c(n1c24)[C@@]1(C)C(CC[C@H]2[C@](C)(/C=C/C(C)=C/C(=O)NCC)[C@@H](O)CC[C@@]21C)C5)C1=CC(C)(C)OC(C)(C)C1[C@@H]3O (some centres undefined)	10 p.p.m.
C=CCOC(=O)/C=C/C=C/[C@]1(C)[C@@H](O)CC[C@@]2(C)[C@H]1CCC1Cc3c(n4c5c(c6c(cc35)C3=CC(C)(C)OC(C)(C)C3[C@@H]6O)C(=O)[C@@H]4C(=C)C)[C@@]12C (some centres undefined)	1 p.p.m.
C=C(C)[C@H]1C(=O)c2c3c(cc4c5c(n1c24)[C@@]1(C)C(CC[C@H]2[C@](C)(/C=C/C=C(\OC)C(=O)NCC)[C@@H](O)CC[C@@]21C)C5)C1=CC(C)(C)OC(C)(C)C1[C@@H]3O (some centres undefined)	10 p.p.m.
C=C(C)[C@H]1C(=O)c2c3c(cc4c5c(n1c24)[C@@]1(C)C(CC[C@H]2[C@](C)(/C=C/C=C/C(=O)OC(C)(C)C)[C@@H](O)CC[C@@]21C)C5)C1=CC(C)(C)OC(C)(C)C1[C@@H]3O (some centres undefined)	10 p.p.m.
C=C(C)[C@H]1C(=O)c2c3c(cc4c5c(n1c24)[C@@]1(C)C(CC[C@H]2[C@](C)(/C=C/C=C(\CCC)C(N)=O)[C@@H](O)CC[C@@]21C)C5)C1=CC(C)(C)OC(C)(C)C1[C@@H]3O (some centres undefined)	10 p.p.m.
C=C(C)[C@H]1C(=O)c2c3c(cc4c5c(n1c24)[C@@]1(C)C(CC[C@H]2[C@](C)(/C=C/C=C(\CC)C(=O)O)[C@@H](O)CC[C@@]21C)C5)C1=CC(C)(C)OC(C)(C)C1[C@@H]3O (some centres undefined)	10 p.p.m.
C=C(C)[C@H]1C(=O)c2c3c(cc4c5c(n1c24)[C@@]1(C)C(CC[C@H]2[C@](C)(/C=C/C=C(\CCCC)C(=O)NC(C)(C)C)[C@@H](O)CC[C@@]21C)C5)C1=CC(C)(C)OC(C)(C)C1[C@@H]3O (some centres undefined)	10 p.p.m.
C=C(C)[C@H]1C(=O)c2c3c(cc4c5c(n1c24)[C@@]1(C)C(CC[C@H]2[C@](C)(/C=C/C=C/C(=O)N(C)C)[C@@H](O)CC[C@@]21C)C5)C1=CC(C)(C)OC(C)(C)C1[C@@H]3O (some centres undefined)	0.1 p.p.m.
C=C(C)[C@H]1C(=O)c2c3c(cc4c5c(n1c24)[C@@]1(C)C(CC[C@H]2[C@](C)(/C=C/C=C\C(N)=O)[C@@H](O)CC[C@@]21C)C5)C1=CC(C)(C)OC(C)(C)C1[C@@H]3O (some centres undefined)	10 p.p.m.
C=C(C)[C@H]1C(=O)c2c3c(cc4c5c(n1c24)[C@@]1(C)C(CC[C@H]2[C@](C)(/C=C/C=C(\CC)C(=O)N4CCCC4)[C@@H](O)CC[C@@]21C)C5)C1=CC(C)(C)OC(C)(C)C1[C@@H]3O (some centres undefined)	10 p.p.m.
C=C(C)[C@H]1C(=O)c2c3c(cc4c5c(n1c24)[C@@]1(C)C(CC[C@H]2[C@](C)(/C=C/C=C(\C)C(=O)O)[C@@H](O)CC[C@@]21C)C5)C1=CC(C)(C)OC(C)(C)C1[C@@H]3O (some centres undefined)	1 p.p.m.
C=C(C)[C@H]1C(=O)c2c3c(cc4c5c(n1c24)[C@@]1(C)C(CC[C@H]2[C@](C)(/C=C/C=C/C(=O)N4CCCC4)[C@@H](O)CC[C@@]21C)C5)C1=CC(C)(C)OC(C)(C)C1[C@@H]3O (some centres undefined)	1 p.p.m.
C=C(C)[C@H]1C(=O)c2c3c(cc4c5c(n1c24)[C@@]1(C)C(CC[C@H]2[C@](C)(/C=C/C=C(\CC)C(N)=O)[C@@H](O)CC[C@@]21C)C5)C1=CC(C)(C)OC(C)(C)C1[C@@H]3O (some centres undefined)	1 p.p.m.
C=C(C)[C@H]1C(=O)c2c3c(cc4c5c(n1c24)[C@@]1(C)C(CC[C@H]2[C@](C)(/C=C/C=C(\CCC)C(=O)NC(C)(C)C)[C@@H](O)CC[C@@]21C)C5)C1=CC(C)(C)OC(C)(C)C1[C@@H]3O (some centres undefined)	10 p.p.m.
